For orientation: EC50 means the concentration that produces a half-maximal response. Low readings indicate higher potency in that assay, high ones lower potency in that assay. For orientation: IC50 means the concentration at which inhibition is half-maximal. Low readings indicate greater potency, high ones weaker potency.

Entries after “also recorded” stand apart in the source; their conditions may differ. Read-outs that look alike come from different tables or passages of the source. Bounds are passed on as bounds.

We go through six molecules from patent publication US11548875B2, “Inhibitor compounds for male contraception” (University of Washington, priority 2018, dated 2023).

Data set [1] addresses T1, ALDH1A1 (Homo sapiens, UniProt P00352).
T1 sequence (P00352 1-501): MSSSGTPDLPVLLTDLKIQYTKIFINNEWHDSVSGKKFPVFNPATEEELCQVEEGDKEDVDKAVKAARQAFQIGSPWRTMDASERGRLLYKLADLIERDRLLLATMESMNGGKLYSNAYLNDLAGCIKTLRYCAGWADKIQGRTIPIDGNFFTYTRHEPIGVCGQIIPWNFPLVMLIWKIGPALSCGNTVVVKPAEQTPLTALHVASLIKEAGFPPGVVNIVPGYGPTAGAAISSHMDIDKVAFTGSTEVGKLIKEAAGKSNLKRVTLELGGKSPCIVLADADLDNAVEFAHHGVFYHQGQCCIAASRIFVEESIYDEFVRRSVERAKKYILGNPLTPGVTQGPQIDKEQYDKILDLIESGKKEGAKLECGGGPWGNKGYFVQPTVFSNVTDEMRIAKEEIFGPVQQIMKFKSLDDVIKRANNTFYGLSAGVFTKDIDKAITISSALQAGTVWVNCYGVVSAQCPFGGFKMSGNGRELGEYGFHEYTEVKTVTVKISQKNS
The experiment in a line: Cell-based enzyme assay, retinoic acid production in ALDH1A1/H1299 cells. The gist of the method: (§1)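 ALDH1A1- or ALDH1A2-stably transfected H1299 cells grown to confluence, then treated 20 h in serum-free RPMI-1640 with 2 μM all-trans-retinal plus varying inhibitor concentrations at 37 °C. Retinoic acid in cells and media quantified; inhibition from RA levels with vs without inhibitor.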

Data set [2] deals with T1, ALDH1A1. The experiment in a line: Inhibitor screening using purified enzymes: ALDH1A1 activity, retinoic acid production by HPLC. As to conditions: purified enzyme. The class given is biochemical. The source says: ALDHs were cloned into bacterial expression vector for in vitro enzyme assays and into mammalian expression vectors for cell-based enzyme assays. Human ALDH1A1 cDNA and human ALDH2 cDNA were purchased from OriGene (SC321535) and Open Biosystems (MHS4771-99611182), respectively. and human ALDH1A2 cDNA was cloned from human testis RNA using RT-PCR (Population Division of the Department of Economic and Social Affairs of the United Nations Secretariat. World Population prospects: the 2008 revision. Available at http://www.un.org/esa/population/ (Retrieved Sep. 30, 2011)). For bacterial expression, an open reading frame of ALDH1A1 and ALDH2 were subcloned into the pETite vector (Lucigen) with a 5′ histidine-tag and that of ALDH1A2 into a pET28 vector (Novagen) with a 3′ histidine-tag. Correct frame and sequences were verified through DNA sequencing (UW DNA sequencing facility). ALDHs were induced with 1 mM IPTG and purified using His.Bind resin (Novagen, San Diego, Calif.) and stored in a buffer containing 20 mM Hepes (pH 8), 150 mM KCl and 1 mM EDTA as previously described (Fierce, Y., de Morais Vieira, M., Piantedosi, R., Wyss, A., Blaner, W. S., and Paik, J. (2008) In vitro and in vivo characterization of retinoid synthesis from beta-carotene. Archives of biochemistry and biophysics 472, 126-138).
ALDH1A1 and ALDH1A2 activity was determined as previously reported (Beedle M T, Stevison F, Zhong G, Topping T, Hogarth C, Isoherranen N, Griswold M D. Sources of All-Trans Retinal Oxidation Independent of the Aldehyde Dehydrogenase 1A Isozymes Exist in the Postnatal Testis. Biol Reprod. 2018 Sep. 21. doi: 10.1093/biolre/ioy200). Briefly, purified enzymes were incubated in a buffer containing 10 mM HEPES buffer (pH 8.0), 150 mM potassium chloride and 2 mM EDTA with 2 mM NAD. Retinoic acid production was determined using HPLC as previously reported (Amory J K, Muller C H, Shimshoni A J, Isoherranen N, Paik J, Moreb J S, Amory D W, Evanoff R, Goldstein A S, Griswold M D. Suppression of spermatogenesis by bisdichloroacetyldiamines is mediated by inhibition of testicular retinoic acid biosynthesis. Journal of Andrology 2011; 32(1):111-119). Inhibitors were diluted in DMSO and added to the reactions. […] For initial screening of inhibitors for ALDH1A2, 1 μg ALDH1A2, 5 μM all-trans-retinal and 5 μM inhibitors were incubated for 15 min at 37° C. […] For this purpose, 0.5 μg ALDH1A2 and […] were incubated for 5 minutes at 37° C. with varying concentrations of inhibitors. To determine specificity toward ALDH1A2, the IC50 for […]

For data set [3], the target named is T2, ALDH1A2 (Homo sapiens, UniProt O94788).
T2 sequence (O94788 1-518): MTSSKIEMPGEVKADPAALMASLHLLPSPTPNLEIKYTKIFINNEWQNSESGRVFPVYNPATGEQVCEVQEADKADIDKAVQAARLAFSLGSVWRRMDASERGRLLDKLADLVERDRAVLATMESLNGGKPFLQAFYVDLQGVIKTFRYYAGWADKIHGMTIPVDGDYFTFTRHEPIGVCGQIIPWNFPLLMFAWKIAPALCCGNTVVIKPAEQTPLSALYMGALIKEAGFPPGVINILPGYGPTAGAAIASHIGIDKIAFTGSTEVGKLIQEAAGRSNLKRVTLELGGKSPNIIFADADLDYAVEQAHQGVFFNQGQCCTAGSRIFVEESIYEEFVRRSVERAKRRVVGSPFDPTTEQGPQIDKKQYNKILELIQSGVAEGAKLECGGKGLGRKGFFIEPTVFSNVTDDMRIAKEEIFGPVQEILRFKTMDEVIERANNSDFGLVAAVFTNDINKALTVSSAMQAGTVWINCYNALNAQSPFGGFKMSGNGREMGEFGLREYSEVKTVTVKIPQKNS
The experiment in a line: Inhibitor screening using purified enzymes: ALDH1A2 activity, retinoic acid production by HPLC (5 uM initial screen, then IC50). The note with it: purified enzyme. On the set-up: histidine-tag (C); made in house; host or cells: bacterial expression (pET28 vector, IPTG induction). The format is biochemical. The method, boiled down: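 Purified His-tagged human enzymes in 10 mM HEPES pH 8.0, 150 mM KCl, 2 mM EDTA with 2 mM NAD, all-trans-retinal substrate; retinoic acid quantified by HPLC. ALDH1A2 initial screen: 1 μg enzyme, 5 μM retinal, 5 μM inhibitor, 15 min, 37° C; IC50 runs: 0.5 μg enzyme, 0.5 μg retinal, 5 min, 37° C.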

Data set [4] deals with T2, ALDH1A2. The experiment in a line: Cell-based enzyme assay, retinoic acid production in ALDH1A2/H1299 cells. The method, boiled down:
as §1

The test system of data set [5] is New Zealand white rabbits. The experiment in a line: Oral WIN 18,446 in rabbits: ejaculated sperm, testicular retinoic acid, serum testosterone. The format is in vivo, rabbit. An excerpt:
In 2011, it was discovered that WIN 18,446 suppresses spermatogenesis by inhibiting testicular retinoic acid biosynthesis.
All animals were azoospermic between week 16 of treatment and week 8 of recovery. Animals underwent a hemi-orchiectomy at the end of treatment, which accounts for the 50% reduction in sperm output at the end of recovery. *p<0.05 compared with baseline.
FIG. 1C compares testicular tissue retinoic acid concentration (pmol/g of tissue) in New Zealand white rabbits treated with 200 mg/kg WIN 18,446 daily, orally over time (N=4/group). […] All values are means±SEM. *p<0.05 compared with placebo, **p<0.01.

Data set [6] concerns men. The note with it: cited from earlier work.
The subject of data set [7] is mice. As to conditions: cited from earlier work.

Turning to `C=C(C(=O)OC)c1ccc(-c2nn(-c3ccc(C#N)cc3)cc2C(=O)Nc2cccc(F)c2)cc1` [Compound 312, Methyl 2-(4-{4-[(3-fluorophenyl)carbamoyl]-1-4-cyanophenyl-1H-pyrazol-3-yl}phenyl)prop-2-enoate], the EC50 in data set [1] (cell-based) is 0.251 µM; in data set [4] (cell-based) it was 12.5 µM. The IC50 in data set [2] came to 3.61 µM; in data set [3] it was 1.2 µM.
For `CC(=O)c1ccc(-c2nn(-c3ccc(C#N)cc3)cc2C(=O)Nc2cccc(F)c2)cc1` [Compound 316, 3-(4-Acetylphenyl)-N-(3-fluorophenyl)-1-(4-cyanophenyl)-1H-pyrazole-4-carboxamide] the same measures were 0.28 µM, 0.123 µM, 10.2 µM and 0.6 µM.
As for `Cn1cccc1C(=O)N1CCN(c2ccc(N)c(N3CCCCCC3)c2)CC1` [Compound 379, {4-[4-Amino-3-(azepan-1-yl)phenyl]piperazin-1-yl}(1-methyl-1H-pyrrol-2-yl)methanone], the EC50 in data set [1] came out at 0.736 µM; in data set [4], 2.58 µM. In addition, the IC50 came out at 0.714 µM in data set [2] and 2.58 µM in data set [3].
For the molecule `Cn1cccc1C(=O)N1CCN(c2ccc(NC(=O)C(Cl)Cl)c(N3CCCCC3)c2)CC1` [Compound 380, {4-[4-Dichloroacetamido-3-(piperidin-1-yl)phenyl]piperazin-1-yl}(1-methyl-1H-pyrrol-2-yl)methanone], the EC50 in data set [1] is 0.099 µM; in data set [4] it was above 5 µM. Moreover, the IC50 is 0.023 µM in data set [2] and 8.7 µM in data set [3].
For `O=C(NCCCCCCCCNC(=O)C(Cl)Cl)C(Cl)Cl` [WIN 18,446], in data set [5] (200 mg/kg daily, orally over time), the “testicular tissue retinoic acid concentration” value was “reduction in intra-testicular retinoic acid”. In addition, the ejaculated sperm concentrations entry in data set [5] (200 mg/kg orally for 16 weeks, 200 mg/kg) is listed as “reversible azoospermia; also recorded: azoospermic”. Also, the sperm concentration result in data set [6] (at least sixty men, up to one year) is listed as “below 1 million sperm/ml of ejaculate”. Besides, the “adverse reaction with alcohol” value in data set [6] (men, when they drank alcohol) is “disulfiram reaction”.
Regarding BMS-189453, in data set [7] (mice, oral), the fertility entry was “infertile after four weeks of treatment”. Also, the liver toxicity entry in data set [7] (mouse, in vivo) is “hepatic inflammation”. Further, in data set [7] (oral doses as low as 5 mg/kg for seven days), the effect on spermatogenesis entry was “potently inhibits spermatogenesis”.
